We go through 3 compounds from patent publication US8283312B2, “Compositions and methods for modulating body weight and treating obesity-related disorders” (The Research Foundation of State University of New York, priority 2005, dated 2012).

Read-outs that look alike come from different tables or passages of the source. Where no end group is shown, it is not given here. The star is where a group is joined. Octanoyl = CCCCCCCC(=O)*

In test [1] the test system is RYGB rats. The test is described as follows: Food intake and body weight of RYGB rats given test substance via implanted intraperitoneal pump. It is filed as in vivo, rat. On the procedure: Daily Measurements: Postoperatively, daily body weight (BW) and caloric intake were measured each morning. The PF group was given the average food intake consumed the previous day by the RYGB group. Daily changes in BW, plotted every three day, are shown in FIG. 2 and the mean change per post-operative time periods are expressed in Table 1 using the same construct as earlier reported in our previous study (6).
A pump (Model 2002, Alza Corp. Palo Alto, Calif.) was implanted i.p. in each of 5 RYGB rats thirty days after RYGB. The pump was loaded with either the PYY receptor antagonist, B11E0246 (TOCRIS, Ellisville, Mo.), or a control solution (DMSO), and released its ingredient at the rate of about 8.3 μl/day (360 nm B11E0246/Kg/day). Food intake was measured as described above.
In a second experiment, a pump was implanted i.p. in each of 5 RYGB rats thirty days after RYGB. The pump was loaded with either ghrelin, or a control solution (DMSO), and released its ingredient at the rate of 8.3 μl/day (60 ng ghrelin/Kg/day). Food intake was measured as described above.
In a third experiment, a pump was implanted i.p. in each of 5 RYGB rats thirty days after RYGB. The pump was loaded with either a combination of the PYY receptor antagonist B11E0246 and ghrelin, or a control solution (DMSO). The pump released its ingredient at the rate of 8.3 μl/day (360 nm B11E0246/Kg/day and 60 ng ghrelin/Kg/day). Food intake was measured as described above.

Test [2] deals with obese subjects. The settings on record: 12 obese subjects, as compared to 12 lean subjects; cited from earlier work.
The test system of test [3] is mice. The settings on record: cited from earlier work.
Where [4] appears, read: physiological levels of ghrelin (60 ng/Kg/day) alone, i.p. pump, FIG. 7.

Consider `N=C(N)NCCC[C@H](NC(=O)CC1(CC(=O)N2CCN(C3c4ccccc4NC(=O)c4ccccc43)CC2)CCCC1)C(=O)NCCn1c(=O)n(-c2ccccc2)n(-c2ccccc2)c1=O` (stereo partly drawn) [B11E0246], for which, in test [1] (i.p. pump implanted thirty days after RYGB, 360 nm B11E0246/Kg/day, vs control solution (DMSO), FIG. 6), the “daily and cumulative food intake” value was “increased daily and cumulative food intake”.

“PYY(3-36): functional analog of PYY; peptide consisting of amino acid 3 to 36 of PYY”: the “decrease of ad libitum food intake per meal” value in test [2] is given as 33%. Moreover, the food intake entry in test [3] (freely feeding mice) was “unchanged”; in test [3] (single intraperitoneal injection, 24 h fasted mice), “significant reduction of food intake for 24 h but not for 48 h”.

“ghrelin: peptide of 28 amino acids, in which the serine 3 residue is n-octanoylated; gut hormone that stimulates food intake (GSS(Octanoyl)FLSPEHQRVQQRKESKKPPAKLQPR; UniProt Q9UBU3 24-51, looked up)”: in test [1] (setting [4]), the body weight entry is on record as “did not significantly increase food intake or body weight” and the food intake entry is recorded as “did not significantly increase food intake or body weight”.
